Data on 40 molecules can be found in US12507703B2, “Methods, devices and compositions for preserving human milk” (The Trustees of Princeton University, priority 2023, dated 2025).

Several values for one entry are separate records, joined by “and”; a condition that tells them apart may be missing. Identical values can stand only once.

For the first test, the system named is lipase. The test can be described thus: Lipase/lipolysis assay (EnzChek Lipase Substrate, quenched BODIPY-fatty acid conjugate) on stored human milk. Also: test concentration or dose not given here.
Conditions: not given
With `O=C([O-])O.[Na+]` [Sodium bicarbonate], the “Lipase (RFU)” value was 751.602 RFU.
Same read-out and setting: for `COc1cc(O[C@@H]2O[C@H](CO)[C@@H](O)[C@H](O)[C@H]2O)c2c(O)c(C(C)=O)c(C)cc2c1` [Torachrysone-8-O-b-D-glucoside] the value was 1039.734 RFU.
Same read-out and setting: for `CCCCC/C=C/C/C=C/CCCCCCCC(=O)O` [Linolelaidic acid] the value was 831.2921 RFU; for `COc1cc(CCN)ccc1O` [Compound 3-Methoxytyramine, 3-Methoxytyramine], 821.2607 RFU; for `Oc1cc(O)c2ccc(-c3ccc(O)c(O)c3)[o+]c2c1.[Cl-]` [Luteolinidin (chloride)], 933.7809 RFU.
The same measure, in the same setting: under `Nc1nc2c(ncn2[C@@H]2O[C@H](COP(=O)([O-])[O-])[C@@H](O)[C@H]2O)c(=O)[nH]1.[Na+].[Na+]` [5′-Guanylic acid (disodium salt)] stands 910.9839 RFU; under `C[Se]C[C@H](N)C(=O)O` [Se-Methylselenocysteine], 889.6084 RFU; under `Nc1ncnc2c1ncn2C1OC(CO)C2OP(=O)(O)OC21` (stereo not shown) [Adenosine-2′,3′-cyclic monophosphate], 828.2019 RFU.
As to `C[S+]([O-])CCCC/C(=N\OS(=O)(=O)O)S[C@@H]1O[C@H](CO)[C@@H](O)[C@H](O)[C@H]1O` (stereo partly shown) [Glucoraphanin], the “Lipase (RFU)” value worked out at 983.9092 RFU.
Still for that read-out and setting: for β-D-Glucan from barley the value was 995.347 RFU; for Hyaluronic acid, 1101.829 RFU.
Same read-out and setting: under `O=C(O)C(O)Cc1ccc(O)cc1` (stereo not shown) [Hydroxyphenyllactic acid] stands 914.2115 RFU; under `C/C(=C\CNc1ncnc2c1ncn2[C@@H]1O[C@H](CO)[C@@H](O)[C@H]1O)CO` [trans-Zeatinriboside], 823.084 RFU; under `CC(C)[C@]12CC(=O)[C@H](C)[C@H]1C2` [α-Thujone], 659.4321 RFU.
Same read-out and setting: under `COc1ccc([C@@H]2CC(=O)c3c(O)cc(O[C@@H]4O[C@H](CO)[C@@H](O)[C@H](O)[C@H]4O)cc3O2)cc1` [Isosakuranin] stands 864.5248 RFU; under `CC(=O)CCc1ccc(O[C@@H]2O[C@H](CO)[C@@H](O)[C@H](O)[C@H]2O)cc1` [Raspberry ketone glucoside], 1167.769 RFU; under `Oc1cc(O)c2cc(O)c(-c3cc(O)c(O)c(O)c3)[o+]c2c1.[Cl-]` [Delphinidin (chloride)], 816.1782 RFU.
Take `CC(C)=CCC[C@](C)(O[C@@H]1O[C@H](CO)[C@@H](O)[C@H](O)[C@H]1O)[C@H]1CC[C@]2(C)[C@@H]1[C@H](O)C[C@@H]1[C@@]3(C)CC[C@H](O)C(C)(C)[C@@H]3[C@@H](O)C[C@]12C` [Ginsenoside F1]: the “Lipase (RFU)” value is recorded as 975.1974 RFU.
Still for that read-out and setting: for `CCCCCC(=O)O[C@H](CC(=O)[O-])C[N+](C)(C)C` [L-Hexanoylcarnitine] the value was 948.6206 RFU.
For `NC(N)=NCCCC[C@H](N)C(=O)O` [H-HoArg-OH], the “Lipase (RFU)” value turned out to be 745.4822 RFU.
Still for that read-out and setting: under `C=C1CCC2CC1C2(C)C` (stereo not drawn) [β-Pinene] stands 851.1223 RFU.
`CC(C)[C@@H](C)[C@@H](O)[C@H](O)[C@@H](C)[C@H]1CC[C@H]2[C@@H]3COC(=O)[C@H]4C[C@H](O)[C@H](O)C[C@]4(C)[C@H]3CC[C@]12C` [Epibrassinolide]: the “Lipase (RFU)” value turned out to be 830.2794 RFU.
On the same count and under the same terms, for `CCCCCCCC/C=C\CCCCCCCC(=O)[O-].[Na+]` [Sodium oleate] the value was 985.0339 RFU and 925.2134 RFU; for `Nc1ncnc2c1ncn2[C@@H]1O[C@H](COP(=O)(O)OP(=O)([O-])OP(=O)([O-])O)[C@@H](O)[C@H]1O.O.[Na+].[Na+]` [ATP (disodium salt hydrate)], 750.5023 RFU.
Still for that read-out and setting: for `NC(=O)C1=CN([C@@H]2O[C@H](COP(=O)([O-])OP(=O)([O-])OC[C@H]3O[C@@H](n4cnc5c(N)ncnc54)[C@H](O)[C@@H]3O)[C@@H](O)[C@H]2O)C=CC1.[Na+].[Na+]` [NADH (disodium salt)] the value was 996.9696 RFU; for `C[C@H](CCC(=O)O)[C@H]1CC[C@H]2[C@@H]3C(=O)C[C@@H]4C[C@H](O)CC[C@]4(C)[C@H]3CC[C@]12C` [7-Ketolithocholic acid], 991.8245 RFU; for `CC(C)C[C@H](NC(=O)CN)C(=O)O` [Glycyl-L-leucine], 829.1827 RFU.
The same measure, in the same setting: under `N=C(N)NCCC[C@H](N)C(=O)O` [L-Arginine] stands 753.4686 RFU and 980.9809 RFU and 913.1858 RFU; under Chondroitin Sulfate, 348.836 RFU.
For the molecule `CCCCC/C=C\C/C=C\CCCCCCCC(=O)O[C@H]1CC[C@@]2(C)C(=CC[C@H]3[C@@H]4CC[C@H]([C@H](C)CCCC(C)C)[C@@]4(C)CC[C@@H]32)C1` [Cholesteryl linoleate], the “Lipase (RFU)” value was 922.3562 RFU.
On the same count and under the same terms, for `O=P([O-])([O-])O[C@H]1O[C@H](CO)[C@H](O)[C@H](O)[C@H]1O.[K+].[K+]` [Galactose 1-phosphate Potassium salt] the value was 1112.021 RFU; for `O=C([O-])c1ccccc1O.[Na+]` [Sodium Salicylate], 847.8959 RFU and 820.8026 RFU.
Same read-out and setting: for `O=C1C[C@@H](c2ccc(O[C@@H]3O[C@H](CO)[C@@H](O)[C@H](O)[C@H]3O)cc2)Oc2cc(O)cc(O)c21` [Choerospondin] the value was 1121.626 RFU; for Pseudoginsenoside F11, 810.4484 RFU.
With `OC[C@H]1O[C@@](CO)(O[C@H]2O[C@H](CO)[C@@H](O)[C@H](O)[C@H]2O)[C@@H](O[C@H]2O[C@H](CO)[C@@H](O)[C@H](O)[C@H]2O)[C@@H]1O` [D-Melezitose], the “Lipase (RFU)” value is 1021.506 RFU.
On the same count and under the same terms, under `C[C@@H]1O[C@@H](O[C@H]2[C@H](O[C@H]3CC[C@]4(C)[C@H]5CC=C6[C@@H]7CC(C)(C)CC[C@]7(C(=O)O[C@@H]7O[C@H](CO[C@@H]8O[C@H](CO)[C@@H](O[C@@H]9O[C@@H](C)[C@H](O)[C@@H](O)[C@H]9O)[C@H](O)[C@H]8O)[C@@H](O)[C@H](O)[C@H]7O)CC[C@@]6(C)[C@]5(C)CC[C@H]4C3(C)C)OC[C@H](O)[C@@H]2O)[C@H](O)[C@H](O)[C@H]1O` [Hederasaponin B] stands 619.4985 RFU.
Regarding Lactate, the “Lipase (RFU)” value was found to be 1249.686 RFU.
On the same count and under the same terms, under `CC(=O)O[C@H]1CC(=O)OC(C)(C)[C@@H]2CC(=O)[C@]3(C)[C@H](CC[C@@]4(C)[C@H](c5ccoc5)OC(=O)[C@H]5O[C@]543)[C@@]12C` [Nomilin] stands 989.5541 RFU.
The same measure, in the same setting: for `O=C1/C(=C2\Nc3ccc(S(=O)(=O)[O-])cc3C2=O)Nc2ccc(S(=O)(=O)[O-])cc21.[Na+].[Na+]` [Indigo carmine] the value was 862.5624 RFU.

Staying with this test, now noted: (hydrochloride).
Turning to `Cl.NCCCC[C@H](N)C(=O)O` [L-Lysine hydrochloride], the “Lipase (RFU)” value is 1184.747 RFU and 890.5892 RFU.
